Assay results reported in article PMC11202002, “P18: Novel Anticancer Peptide from Induced Tumor-Suppressing Cells Targeting Breast Cancer and Bone Metastasis” (Cancers, 2024).
Read-outs that look alike come from different tables or passages of the source.

Key:
[1] = system: human triple-negative breast cancer tissue; assay: Ex vivo cancer tissue assay; format: cell-based; conditions: 5 µM Cisplatin or Taxol with 25 µg/mL of P18; 48 and 96 h; n = 6
Description: The usage of human triple-negative breast cancer tissue was approved by the Indiana University Institutional Review Board (1911155674), and the tissues were received from the Indiana University Simon Comprehensive Cancer Center Tissue Procurement Core. Freshly isolated breast cancer tissue (~10 mg) was manually fragmented with a scalpel into small pieces (0.5~0.8 mm in length), which were grown in DMEM with 10% FBS and antibiotics for a day. […] The culture medium, consisting of these agents, was applied for 4 days, and a change in the fragment size was determined.

[2] = system: MDA-MB-231 cells; assay: MTT-based cell viability assay; set-up: species or system human; conditions: for MTT-based relative viability: relative to cn = 1.00, peptide concentration not given, treated two days, OD 562 nm
Description: (§1) Using 96-well plates with approximately 2000 cells per well, an MTT-based metabolic activity assay was performed. The cells were treated with agents and incubated for two days. On the fourth day, they were stained with 0.5 mg/mL thiazolyl blue tetrazolium bromide (M5655, Sigma). The optical density, used to assess metabolic activity, was measured at 562 nm. For the EdU-based proliferation activity assay, the cells were seeded in 96-well plates at about 1000 cells per well. A fluorescence-based cell proliferation kit (Click-iT™, EdU Alexa Fluor™ 488 Imaging Kit; Thermo Fisher, Waltham, MA, USA) was used according to the manufacturer’s instructions.

[3] = system: MDA-MB-436 cells; assay: MTT-based cell viability assay; set-up: species or system human; conditions: for MTT-based relative viability: relative to cn = 1.00, peptide concentration not given, treated two days, OD 562 nm
Description: as §1

[4] = system: PANC1 PDAC cells; assay: MTT-based cell viability assay
Description: as §1

[5] = system: TT2 osteosarcoma cell line; assay: MTT-based cell viability assay; conditions: TT2 OS cells
Description: as §1

[6] = system: PANC198 PDAC cells; assay: MTT-based cell viability assay; conditions: PANC198 (PAN198)
Description: as §1

[7] = system: MCF7 cells; assay: MTT-based cell viability assay; set-up: species or system human
Description: as §1

[8] = system: 4T1.2 mammary tumor cells; assay: MTT-based cell viability assay; set-up: species or system mouse
Description: as §1

N.N.[Cl][Pt][Cl] [Cisplatin, reference compound]
size of cancer tissues, drug with concurrent P18 versus drug alone [1]: more pronounced reduction in the size | IC50 ([2]; drug alone, read-out: IC50, MTT-based viability): 1200 nM | IC50 ([2]; drug in combination with P18, read-out: IC50, MTT-based viability, with application of P18): 500 nM

CC(=O)O[C@H]1C(=O)[C@@]2(C)[C@H]([C@H](OC(=O)c3ccccc3)[C@]3(O)C[C@H](OC(=O)[C@H](O)[C@@H](NC(=O)c4ccccc4)c4ccccc4)C(C)=C1C3(C)C)[C@]1(OC(C)=O)CO[C@@H]1C[C@@H]2O [Taxol, reference compound]
size of cancer tissues, drug with concurrent P18 versus drug alone [1]: more pronounced reduction in the size | IC50 ([2]; Homo sapiens, drug alone, read-out: IC50, MTT-based viability): 700 nM | IC50 ([2]; Homo sapiens, drug in combination with P18, read-out: IC50, MTT-based viability, with application of P18): 300 nM

EEAESTLQSFR [P14, ACP candidate … from Vim]
MTT-based relative viability [3]: 0.84 | MTT-based relative viability [2]: 0.88

LGDLYEEEMR [P17, ACP candidate … from Vim]
MTT-based relative viability [3]: 0.99 | MTT-based relative viability [2]: 1.10

TDYMVGSYGPR-NH2 [P18-NH2, C-terminal-amidated P18, …-NH2]
tumor-suppressor effect compared with the original P18 (MTT) [4]: did not improve the tumor-suppressor effect | tumor-suppressor effect compared with the original P18 (MTT) [5]: did not improve the tumor-suppressor effect | tumor-suppressor effect compared with the original P18 (MTT) [6]: did not improve the tumor-suppressor effect | tumor-suppressor effect compared with the original P18 (MTT) [3]: did not improve the tumor-suppressor effect | tumor-suppressor effect compared with the original P18 (MTT) [2]: did not improve the tumor-suppressor effect | tumor-suppressor effect compared with the original P18 (MTT) [7]: did not improve the tumor-suppressor effect | tumor-suppressor effect compared with the original P18 (MTT) [8]: did not improve the tumor-suppressor effect

NDLAVVDVR [P13, ACP candidate … from Ncl]
MTT-based relative viability [3]: 0.95 | MTT-based relative viability [2]: 0.98

FEELNADLFR [P21, ACP candidate … from Hspa8]
MTT-based relative viability [3]: 0.92 | MTT-based relative viability [2]: 0.89

VNFTVDQIR [P12, ACP candidate … from Eef2]
MTT-based relative viability [3]: 0.92 | MTT-based relative viability [2]: 0.94

IEVIEIMTDR [P22, ACP candidate … from Hnrnpa1]
MTT-based relative viability [3]: 0.88 | MTT-based relative viability [2]: 0.86

YEWDVAEAR [P16, ACP candidate … from Eef2]
MTT-based relative viability [3]: 0.96 | MTT-based relative viability [2]: 0.93

IDTIEIITDR [P15, ACP candidate … from Hnrn]
MTT-based relative viability [3]: 0.95 | MTT-based relative viability [2]: 0.93

DQVANSAFVER [P19, ACP candidate … from Hsp90aa1]
MTT-based relative viability [3]: 0.96 | MTT-based relative viability [2]: 1.09

QITLNDLPVGR [P20, ACP candidate … from Prdx4]
MTT-based relative viability [3]: 0.86 | MTT-based relative viability [2]: 0.87

FEDENFILK [P11, ACP candidate … from Ppia]
MTT-based relative viability [3]: 0.95 | MTT-based relative viability [2]: 0.96

B1: Arhgdia: Rho GDP dissociation inhibitor alpha; human recombinant ARHGDIA protein (MyBioSource) (protein, UniProt P52565 2-204, looked up)
Rho GDP-dissociation …: AEQEPTAEQLAQIAAENEEDEHSVNYKPPAQKSIQEIQELDKDDESLRKYKEALLGRVAVSADPNVPNVVVTGLTLVCSSAPGPLELDLTGDLESFKKQSFVLKEGVEYRIKISFRVNREIVSGMKYIQHTYRKGVKIDKTDYMVGSYGPRAEEYEFLTPVEEAPKGMLARGSYSIKSRFTDDDKTDHLSWEWNLTIKKDWKD
MTT-based cell viability ([2]; 5 μg/mL of recombinant ARHGDIA protein): significant reduction
